This is an account of results in patent US9784752B2, “Venlafaxine assay” (Randox Laboratories, Limited, priority 2012, dated 2017).

Values after ≈ are worked out from the molar mass of the structure shown.

The assay deals with polyclonal antibody raised to Immunogen II. Kind of assay: Competitive biochip immunoassay (Evidence Investigator) with Hapten-1 HRP detecting agent. As to conditions: for % Cross-reactivity: %CR calculated from IC50 ratio x 100; for IC50: concentration causing 50% displacement of signal, competition with Hapten-1 HRP for immobilised polyclonal antibody, 30 minutes at 30° C. The format is binding, sheep. On the procedure: A semi-automated Evidence Investigator analyser (Randox Laboratories Ltd., Crumlin, UK) was used as the platform for a biochip assay for the detection of venlafaxine and O-desmethylvenlafaxine. Immunogen II was administered to adult sheep on a monthly basis to provide target-specific polyclonal antisera. IgG was extracted from the antisera, and the purified antibody was immobilised on a biochip (9 mm×9 mm). The assay is based on competition for binding sites of a polyclonal antibody between Hapten-1HRP detecting agent (Example 10) and venlafaxine and O-desmethylvenlafaxine and potential cross-reactants. The antibody was immobilised and stabilised onto the biochip surface as previously described (Fitzgerald et al., 2005). Assay diluent (155 μL), calibrator/venlafaxine and O-desmethylvenlafaxine or potential cross-reactant (25 μL) followed by Hapten-1 HRP detecting agent (120 μL) were added to the appropriate biochip. The biochips were then incubated for 30 minutes at 30° C. on a thermoshaker set at 370 rpm. The biochips were then subjected to 2 quick wash cycles using the wash buffer provided, followed by 4×2 minute wash cycles. 250 μL of signal (1:1 luminol+peroxide, v/v) was then added to each biochip, and after 2 minutes the biochip carrier was imaged in the Evidence Investigator analyser. Calibration curves were generated and these were used to determine the sensitivity and specificity of the immunoassay for venlafaxine, O-desmethylvenlafaxine and potential cross-reactants.
Table 1, cross-reactivity being calculated according to the following formula: %CR=IC50,O-desmethylvenlafaxine/IC50,CR×100 where % CR is the percentage cross-reactivity, IC50, O-desmethylvenlafaxine is the concentration of O-desmethylvenlafaxine which causes 50% displacement of signal and IC50, CR is the concentration of venlafaxine or potential cross-reactant that causes 50% displacement of signal.

As usually defined, the IC50 is the midpoint of a concentration-inhibition curve. Take `COc1ccc(C(CN(C)C)C2(O)CCCCC2)cc1` (racemic) [Venlafaxine, (RS)-1-[2-(dimethylamino)-1-(4-methoxyphenyl)ethyl]cyclohexanol]: the “% Cross-reactivity” value was 100% and the concentration for half-maximal inhibition (IC50) came to 0.01831 µg/mL (≈ 0.066 µM). The like results for `CN(C)CC(c1ccc(O)cc1)C1(O)CCCCC1` (racemic) [O-Desmethylvenlafaxine, (RS)-1-[2-(dimethylamino)-1-(4-hydroxyphenyl)ethyl]cyclohexanol] were, in that order, 48.4% and 0.03786 µg/mL (≈ 0.144 µM).

As to `CNCC1CCCCC1(O)c1cccc(OC)c1` (centres unmarked) [N-Desmethyltramadol], the “% Cross-reactivity” value was <5.7% and the “IC50” value is >0.32 µg/mL. For `COC(=O)C(c1ccccc1)C1CCCCN1` (centres unmarked) [Methylphenidate] the same measures were <5.7% and >0.32 µg/mL. With `CCOC(=O)C1(c2ccccc2)CCN(C)CC1` [Meperidine], the “% Cross-reactivity” value is listed as <5.7%.

`c1ccc(C2(N3CCCCC3)CCCCC2)cc1` [PCP]: the “% Cross-reactivity” value is <5.7% and the 50% inhibitory concentration (IC50) was >0.32 µg/mL.

For the molecule `COc1cccc(C2(O)CCCCC2CN(C)C)c1` (centres unmarked) [Tramadol], the “% Cross-reactivity” value was <5.7%. For `CN(C)C[C@H]1CCCC[C@]1(O)c1cccc(O)c1` [O-Desmethyltramadol], the “% Cross-reactivity” value is given as <5.7% and the “IC50” value is >0.32 µg/mL.
